Like-named read-outs stand apart in the source and are kept apart here.
Key:
[1] = test system: left auricle of the guinea pig; test: Functional refractory period of the left auricle, paired electrical stimulation (method of Govier); settings: for percent lengthening of refractory period at 0.01 µM: Cavia porcellus, read-out: Antiarrhythmic Effect (Lengthening of the refractory period in percent); for percent lengthening of refractory period at 0.01 µM / Antiarrhythmic Effect (Lengthening of the refractory period in percent): Table 2, dose in each case 10^^-5 millimoles/liter; for Antiarrhythmic Effect (Lengthening of the Refractory Period) ED25: Table 1, effective dose which lengthens the refractory period by 25 percent
Text: Evidence of the anti-arrhythmic effect of the new compounds is obtained in experimental animals by determination of the functional refractory period of the left auricle of the guinea pig with the aid of paired electrical stimulation employing the method of W. C. Govier, J. Pharmacol. Exp. Therap. 148, 100 - 105 (1965). In this experimental arrangement, those anti-arrhythmic agents already known for use in therapy, of differing structure and of different points of attack in the human, all distinguish themselves by lengthening the functional refractory period. The method additionally permits a determination of the effects of the substances on the contractile force of the heart muscle [cf. Reuter and Heeg, Naunyn-Schmiedeberg's Arch. Pharmak. 268, 323 - 333 (1971) and Zettler and Strubelt, Naunyn-Schmiedeberg's Arch. Pharmak. 271, 335 - 345 (1971)].
The testing of the substances in each case involves up to thirty individual experiments. For the dosage effect relationships, linear regression functions were calculated [A. Lindner, Statistische Methoden, 3rd Edition, Birkhaeuser Verlag, Basel (1969)], wherein the maximum percentage deviations from the starting value over a period of up to 60 minutes after addition of the test substance to the bath fluid were employed.
In following Table 1, column I, the optical isomers of one of the compounds of the invention and known anti-arrhythmic agents are named. Column II reports their anti-arrhythmic effect. Column III gives the inotropic effect, and column IV represents the therapeutic breadth of the compounds. The ED25 is the effective dose which lengthens the refractory period by 25 percent or reduces the contractile force by 25 percent.
The dose in each case is 10^^-5 millimoles/liter.

[2] = test system: left auricle of the guinea pig; test: Inotropic effect: contractile force of the heart muscle (left auricle); settings: Table 1; for Inotropic Effect (Decrease in Contractile Force) ED25: effective dose which reduces the contractile force by 25 percent; for Therapeutic Breadth (III/II): ratio inotropic ED25 / antiarrhythmic ED25
Text: (§1) Evidence of the anti-arrhythmic effect of the new compounds is obtained in experimental animals by determination of the functional refractory period of the left auricle of the guinea pig with the aid of paired electrical stimulation employing the method of […]. Pharmacol. Exp. Therap. 148, 100 - 105 (1965). In this experimental arrangement, those anti-arrhythmic agents already known for use in therapy, of differing structure and of different points of attack in the human, all distinguish themselves by lengthening the functional refractory period. The method additionally permits a determination of the effects of the substances on the contractile force of the heart muscle [cf. Reuter and Heeg, Naunyn-Schmiedeberg's Arch. Pharmak. 268, 323 - 333 (1971) and Zettler and Strubelt, Naunyn-Schmiedeberg's Arch. Pharmak. 271, 335 - 345 (1971)]. The testing of the substances in each case involves up to thirty individual experiments. For the dosage effect relationships, linear regression functions were calculated [[…] Methoden, 3rd Edition, Birkhaeuser Verlag, Basel (1969)], wherein the maximum percentage deviations from the starting value over a period of up to 60 minutes after addition of the test substance to the bath fluid were employed. In following Table 1, column I, the optical isomers of one of the compounds of the invention and known anti-arrhythmic agents are named. Column II reports their anti-arrhythmic effect. Column III gives the inotropic effect, and column IV represents the therapeutic breadth of the compounds. The ED25 is the effective dose which lengthens the refractory period by 25 percent or reduces the contractile force by 25 percent.

[3] = test system: disturbances of the heart-beat rhythm; test: Aconitine-induced disturbances of the heart rhythm, long term effect after peroral treatment; assay type: in vivo; settings: rats, perorally 400 mg/kg, eight hours after administration, vs untreated animals
Text: (§2) The anti-arrhythmic effect of the new compounds can also be determined in intact test animals by experimentally-induced disturbances of the heart rhythm. If rats are continually infused intravenously with aconitine, serious disturbances of the heart-beat rhythm, such as extrasystoles, ventricular tachycardia, and ventricular flutter, which disturbances eventually lead to the death of the test animals, are evident in an electrocardiogram. […] Bianchi et al., Arzneim. Forsch. 18, 845 - 850 (1968); Haas and Busch, Arzneim. Forsch. 18, 401 - 407 (1968); Haas et al., Arzneim. Forsch. 21, 1392 - 1399 (1971); Marmo, Naunyn-Schmiedeberg's Arch. Pharmak. 269, 231 - 247 (1971); Strubelt et al., Naunym-Schmiedeberg's Arch. Pharmak. 271, 346 - 360 ( 1971)].

[4] = Inotropic effect: contractile force of the heart muscle (left auricle); set-up: species or system guinea pig; settings: guinea pig, left auricle, Table 1; ratio inotropic ED25 / antiarrhythmic ED25; read-out: Therapeutic Breadth (III/II)
Text: as §1

[5] = test system: disturbances of the heart-beat rhythm; test: Aconitine-induced disturbances of the heart rhythm, intravenous pretreatment; assay type: in vivo, rats; settings: for ED25 / ED50: Rattus norvegicus; for Ventricular Flutter ED25: dose raising administered aconitine dose by 25 percent prior to ventricular flutter; for Ventricular Flutter ED50: dose raising administered aconitine dose by 50 percent prior to ventricular flutter
Text: as §2
The ED25 and ED50 are the intravenous doses, in mg/kg, which raise the administered aconitine doses, in comparison with the aconitine control, by 25 percent or 50 percent prior to the appearance of extrasystoles, ventricular tachycardia, and ventricular flutter.

[6] = intravenous, dose raising administered aconitine dose by 25 percent prior to ventricular tachycardia, read-out: Ventricular Tachycardia ED25
[7] = intravenous, dose raising administered aconitine dose by 50 percent prior to ventricular tachycardia, read-out: Ventricular Tachycardia ED50

## CC[C@H]1[C@@H]2C[C@H]3[C@@H]4N(C)c5ccccc5[C@]45C[C@@H]([C@@H]2[C@H]5O)N3[C@@H]1O [Ajmaline, reference compound]
[1]
  percent lengthening of refractory period at 0.01 µM: 14%

## COc1ccc(CC2(C)CN(C(c3ccccc3)c3ccccc3)CCN2)cc1OC (stereo not drawn) [(D)-1-diphenylmethyl-3-methyl-3-(3,4-dimethoxybenzyl)-pipera] [(D)-1-diphenylmethyl-3-methyl-3-(3,4-dimethoxybenzyl)-piperazine]
[1]
  Antiarrhythmic Effect (Lengthening of the refractory period in percent): 31%

## COc1ccc(CC2(C)CN(C(c3ccccc3)c3ccccc3)CCN2C)cc1OC (stereo not drawn) [(D)-1-diphenylmethyl-3-methyl-3-(3,4-dimethoxybenzyl)-4-meth] [(D)-1-diphenylmethyl-3-methyl-3-(3,4-dimethoxybenzyl)-4-methyl-piperazine]
[2]
  Inotropic Effect (Decrease in Contractile Force) ED25: 0.0093
[3]
  higher dose of aconitine required before the appearance of extrasystoles: 68%
  higher dose of aconitine required before the appearance of ventricular flutter: 70%
  higher dose of aconitine required before the appearance of ventricular tachycardia: 75%
[1]
  Antiarrhythmic Effect (Lengthening of the Refractory Period) ED25: 0.0063
  Antiarrhythmic Effect (Lengthening of the refractory period in percent): 50%

## CCCCN1CCN(C(c2ccccc2)c2ccccc2)CC1(C)Cc1ccc(OC)c(OC)c1 (stereo not drawn) [(D)-1-diphenylmethyl-3-methyl-3-(3,4-dimethoxybenzyl)-4-n-butyl-piperazine]
[1]
  percent lengthening of refractory period at 0.01 µM: 31%

## CCCN1CCN(C(c2ccccc2)c2ccccc2)CC1(C)Cc1ccc(OC)c(OC)c1 (stereo not drawn) [(D)-1-diphenylmethyl-3-methyl-3-(3,4-dimethoxybenzyl)-4-n-propyl-piperazine]
[1]
  percent lengthening of refractory period at 0.01 µM: 51%

## COc1ccc(CC2(C)CN(C(c3ccccc3)c3ccccc3)CCN2C)cc1OC (stereo not drawn) [(D)-1-diphenylmethyl-3-methyl-3-(3,4-dimethoxybenzyl)-4-methyl-piperazine]
[4]
  selectivity ratio: 1.5
[5]; iv, read-out: Extrasystoles ED25
  ED25: 0.94 mg/kg
[5]; iv, read-out: Extrasystoles ED50
  ED50: 1.21 mg/kg
[5]; iv, read-out: Ventricular Flutter ED25
  ED25: 0.84 mg/kg
[5]; iv, read-out: Ventricular Flutter ED50
  ED50: 1.23 mg/kg
[5]; iv, read-out: Ventricular Tachycardia ED25
  ED25: 0.94 mg/kg
[5]; iv, read-out: Ventricular Tachycardia ED50
  ED50: 1.26 mg/kg

## COc1ccc(CC2(C)CN(C(c3ccccc3)c3ccccc3)CCN2CCO)cc1OC (stereo not drawn) [(D)-1-diphenylmethyl-3-methyl-3-(3,4-dimethoxybenzyl)-4-hydr] [(D)-1-diphenylmethyl-3-methyl-3-(3,4-dimethoxybenzyl)-4-hydroxyethyl-piperazine]
[1]
  Antiarrhythmic Effect (Lengthening of the refractory period in percent): 72%

## COc1ccc(CC2(C)CN(C(c3ccccc3)c3ccccc3)CCN2C)cc1OC (stereo not drawn) [(L)-1-diphenylmethyl-3-methyl-3-(3,4-dimethoxybenzyl)-4-meth] [(L)-1-diphenylmethyl-3-methyl-3-(3,4-dimethoxybenzyl)-4-methyl-piperazine]
[2]
  Inotropic Effect (Decrease in Contractile Force) ED25: 0.0052
  Therapeutic Breadth (III/II): 0.9
[1]
  Antiarrhythmic Effect (Lengthening of the Refractory Period) ED25: 0.0056
  Antiarrhythmic Effect (Lengthening of the refractory period in percent): 73%

## CCN(CC)CCNC(=O)c1ccc(N)cc1 [Procainamide]
[3]
  higher dose of aconitine required before the appearance of extrasystoles: 16%
  higher dose of aconitine required before the appearance of ventricular flutter: 29%
  higher dose of aconitine required before the appearance of ventricular tachycardia: 12%
[5]; intravenous, dose raising administered aconitine dose by 25 percent prior to extrasystoles, read-out: Extrasystoles ED25
  ED25: 6.8 mg/kg
[5]; [6]
  ED25: 6.8 mg/kg
[5]; intravenous, dose raising administered aconitine dose by 50 percent prior to extrasystoles, read-out: Extrasystoles ED50
  ED50: 52.6 mg/kg
[5]; [7]
  ED50: 29.1 mg/kg
[5]; intravenous
  Ventricular Flutter ED25: +
  Ventricular Flutter ED50: +

## COc1ccc(CC2(C)CN(C(c3ccccc3)c3ccccc3)CCN2CCO)cc1OC (stereo not drawn) [1-diphenylmethyl-3-methyl-3-(3,4-dimethoxybenzyl)-4-hydroxyethylpiperazine]
[1]
  percent lengthening of refractory period at 0.01 µM: 55%

## c1ccc(CN(CC2=NCCN2)c2ccccc2)cc1 [Antazoline, reference compound]
[4]
  selectivity ratio: 0.6
[2]
  Inotropic Effect (Decrease in Contractile Force) ED25: 0.094
[1]
  Antiarrhythmic Effect (Lengthening of the Refractory Period) ED25: 0.164

## C1CCN2C[C@@H]3C[C@@H](CN4CCCC[C@@H]34)[C@H]2C1 [Sparteine]
[5]; [6]
  ED25: 4.4 mg/kg
[5]; [7]
  ED50: 9.5 mg/kg
[5]; intravenous, dose raising administered aconitine dose by 25 percent prior to extrasystoles
  Extrasystoles ED25: +
[5]; intravenous
  Ventricular Flutter ED25: +
  Ventricular Flutter ED50: +
[5]; intravenous, dose raising administered aconitine dose by 50 percent prior to extrasystoles
  Extrasystoles ED50: +

## COc1ccc(CC2(C)CN(C(c3ccccc3)c3ccccc3)CCN2)cc1OC (stereo not drawn) [1-diphenylmethyl-3-methyl-3-(3,4-dimethoxybenzyl)-piperazine] [listing 1 of 2 here]
[1]
  effectiveness (in words): outstanding

## COc1ccc(CC2(C)CN(C(c3ccccc3)c3ccc(Cl)cc3)CCN2)cc1OC (stereo not drawn) [1-(p-chlorophenyl-phenylmethyl)-3-methyl-3-(3,4-dimethoxybenzyl)-piperazine]
[1]
  percent lengthening of refractory period at 0.01 µM: 28%

## COc1ccc(CC2(C)CN(C(c3ccccc3)c3ccc(Cl)cc3)CCN2CCO)cc1OC (stereo not drawn) [1-(p-chlorophenyl-phenylmethyl)-3-methyl-3-(3,4-dimethoxybenzyl)-4-hydroxyethyl-piperazine]
[1]
  percent lengthening of refractory period at 0.01 µM: 55%

## CCN1CCN(C(c2ccccc2)c2ccccc2)CC1(C)Cc1ccc(OC)c(OC)c1 (stereo not drawn) [(L)-1-diphenylmethyl-3-methyl-3-(3,4-dimethoxybenzyl)-4-ethyl-piperazine]
[1]
  percent lengthening of refractory period at 0.01 µM: 48%

## CCN1CCN(C(c2ccccc2)c2ccccc2)CC1(C)Cc1ccc(OC)c(OC)c1 (stereo not drawn) [(D)-1-diphenylmethyl-3-methyl-3-(3,4-dimethoxybenzyl)-4-ethy] [(D)-1-diphenylmethyl-3-methyl-3-(3,4-dimethoxybenzyl)-4-ethyl-piperazine]
[1]
  Antiarrhythmic Effect (Lengthening of the refractory period in percent): 50%

## COc1ccc(CC2(C)CN(C(c3ccccc3)c3ccccc3)CCN2C)cc1OC (stereo not drawn) [1-diphenylmethyl-3-methyl-3-(3,4-dimethoxybenzyl)-4-methyl-p] [1-diphenylmethyl-3-methyl-3-(3,4-dimethoxybenzyl)-4-methyl-piperazine]
[1]
  Antiarrhythmic Effect (Lengthening of the refractory period in percent): 64%

## CCC[N+]12[C@H](O)[C@@H](CC)[C@@H]3C[C@H]1[C@@H]1N(C)c4ccccc4[C@]14C[C@H]2[C@@H]3[C@H]4O [N-n-propylajmaline, reference compound]
[2]
  Inotropic Effect (Decrease in Contractile Force) ED25: 0.0015
  Therapeutic Breadth (III/II): 0.4
[1]
  Antiarrhythmic Effect (Lengthening of the Refractory Period) ED25: 0.0037

## COc1ccc(CC2(C)CN(C(c3ccccc3)c3ccccc3)CCN2)cc1OC (stereo not drawn) [1-diphenylmethyl-3-methyl-3-(3,4-dimethoxybenzyl)-piperazine] [listing 2 of 2 here]
[1]
  percent lengthening of refractory period at 0.01 µM: 46%

From US3996360A, “Piperazine compounds” (Knoll A.G. Chemische Fabriken, priority 1974, dated 1976)
